{"source": "patent US5597809A", "about": "“Treatment of optic neuritis” (priority 1994, dated 1997)", "key": {"[1]": {"tested_on": "retinal ganglion cells", "experiment": "Toxicity of other drugs to retinal ganglion cells and prevention by MK801 (FIG. 8)", "format": "cell-based", "description": "FIG. 8 is a bar graph showing prevention of drug toxicity by the protective agent, MK801. […] Retinal ganglion cells were incubated for 24 hours with either drug alone (5-fluorouracil (5-FU), Defororixamine, and Tamoxifenor drug +MK801, followed by measurement of cell viability.\nAs discussed above, other drugs are known to cause optic neuropathy (see Table 13). However, the mechanism of drug toxicity has not been defined. Experiments were carried out to determine whether NMDA antagonists prevented retinal cell damage induced by such drugs. […] The cytotoxic effect of these drugs on retinal ganglion cells was prevented by the NMDA antagonist, MK801."}, "[2]": {"tested_on": "retinal ganglion cells", "experiment": "Attenuation of ethambutol toxicity by NMDA antagonists and a calcium channel blocker (retinal ganglion cell viability, FIG. 3)", "details": "for retinal ganglion cell viability, drug alone: no ethambutol; for protection of retinal ganglion cells from ethambutol-mediated toxicity: 24 hours"}, "[3]": {"tested_on": "M. tuberculosis and M. avium isolates", "experiment": "Minimal inhibitory concentration of ethambutol by radiometric Bactec technique with and without protective agents", "format": "cell-based, Mycobacterium tuberculosis; Mycobacterium avium"}, "[4]": {"tested_on": "all other cells of the retinal dissociations", "experiment": "Viability of the other cell types in dissociated retinal preparations exposed to ethambutol", "format": "cell-based, rat", "details": "increasing concentrations, 24 hours", "description": "FIG. 1 is a line graph showing dose-dependent toxicity of ethambutol to retinal ganglion cells in vitro. Dissociated rodent retinal ganglion cells were incubated with increasing concentrations of ethambutol for 24 hours. The ability of cells to take up and cleave fluorescein diacetate was used as an index of their viability and lack of injury. […] Retinal ganglion cells (open circles) and all other cells (open squares) were scored separately for viability. […] (*) indicates statistical difference by an analysis of variance (ANOVA) followed by Scheffe multiple comparison of means, P<0.01. Values were normalized to control (n=1) and represent the means ± standard deviations of four experiments; at least 150 retinal ganglion cells scored for control values in each experiment.\nInitial experiments were carried out in vitro. Freshly dissociated rat retinal preparations were exposed to increasing concentrations of ethambutol. […] Retinal cells were incubated in the presence of increasing concentrations of ethambutol, and scored for viability at 24 hours. Retinal ganglion cells were identified by the presence of DiI fluorescence.\nViability was assayed by uptake and cleavage of a second fluorescent dye, fluorescein diacetate. Ethambutol toxicity was detected only in retinal ganglion cells (FIG. 1, open circles). […]"}, "[5]": {"tested_on": "retinal ganglion cell layer", "experiment": "In vivo toxicity of ethambutol to the retina", "details": "100 mg/kg daily, orally, 30 days"}, "[6]": {"tested_on": "retinal cultures", "experiment": "Endogenous glutamate in retinal cultures by HPLC", "format": "cell-based, rat", "details": "overnight incubation with ethambutol", "description": "The role of endogenous glutamate in ethambutol toxicity was evaluated. Endogenous glutamate in retinal cultures was 26±2 μM (mean ±standard deviation, n=12) (as measured by high pressure liquid chromatography).\nThis level of endogenous glutamate was not affected by overnight incubation with ethambutol. […] Nevertheless, experiments were carried out to determine whether endogenous glutamate was required for the expression of ethambutol toxicity in these preparations. […] The endogenous glutamate was specifically degraded by the addition of the enzyme glutamate-pyruvate transaminase (GPT) in the presence of the cosubstrate pyruvate."}, "[7]": {"tested_on": "retinal ganglion cells", "experiment": "Fura-2 intracellular calcium in retinal ganglion cells (response to NMDA and ethambutol)", "format": "cell-based, rat", "details": "for effect on intracellular calcium, ethambutol alone: 10 μM ethambutol; for greater rise in intracellular calcium with ethambutol + NMDA than with NMDA alone: 10 μM ethambutol + 100 μM NMDA", "description": "FIG. 6 is a bar graph showing the effect of ethambutol and Zn^2+ on the cellular response to NMDA. Dissociated retinal ganglion cells were labeled with the calcium sensitive dye, fura-2. 100 μM NMDA were then applied by puffer, and the peak intracellular calcium concentration measured (peak response occurred between 10 and 70 seconds after NMDA exposure for all cells). The indicated drugs were then applied in the following concentrations: 10 μM ethambutol (Eth) or 100 μM Zn^2+. Values are means ± standard deviations. Ethambutol + NMDA led to a 20% greater rise in intracellular calcium then NMDA alone. (*) indicates statistical difference by an analysis of variance (ANOVA) followed Scheffe multiple comparison of means, P<0.01. Ethambutol, NMDA, and Zn^2+ simultaneously led to the same rise seen with NMDA alone. Ethambutol alone or in combination with Zn^2+ had no effect under these conditions.\n(§1) Neuronal intracellular free Ca^2+ concentration ([Ca^2+ ]i) was analyzed with fura-2 acetoxymethyl ester (fura 2-AM; Molecular Probes) following procedures known in the art. DiI labeled retinal ganglion cells were subsequently labeled with fura-2. Agonists (NMDA-glycine, glutamate, etc.) were applied by pneumatic pipettes (aperture […], 3-6 psi) placed 10-20 μm from the cells of interest. Data were analyzed via the Metamorph software package (Image 1).\nThere are several possible explanations for the finding that ethambutol toxicity to retinal ganglion cells is mediated through the NMDA receptor. A primary effect of NMDA is its known ability to increase intracellular calcium in neurons; this effect was monitored via the fluorescent dye, fura 2. Accordingly, dissociated retinal ganglion cells were labeled with fura-2. Ethambutol in concentrations from 1 nM to 1 mM was puffed onto retinal ganglion cells for periods of up to five minutes. No change was detected in 25 of 25 cells examined. As a control, 100 μM NMDA was subsequently puffed onto these cells, and in 23 of 25 cells the intracellular calcium rose to […] or higher.\nSince a rise in intracellular calcium is one of the neuron's first responses to exogenously applied glutamate or NMDA, the following experiment was performed to detect changes in intracellular calcium. Dissociated retinal ganglion cells were labeled with the calcium sensitive dye, fura 2. Fura 2 allows for measurement of cytosolic calcium concentrations.\n100 μM NMDA was applied to individual retinal ganglion cells, and the rise in intracellular calcium measured. The cells were then allowed to recover, and the intracellular calcium returned to baseline. 10 μM ethambutol and 100 μM NMDA were then simultaneously applied to the same cell (FIG. 6, second bar).\nAs a second experiment, 100 μM Zn^2+ chloride was added to the ethambutol/NMDA puffer. In the presence of 100 μM Zn^2+, 100 μM NMDA plus 10 μM ethambutol led to a rise in intracellular calcium that was indistinguishable from NMDA alone (FIG. 6, third bar). […] Accordingly, exogenous Zn^2+ reduced the NMDA/ethambutol response to the baseline NMDA response."}, "[8]": {"tested_on": "retinal ganglion cells", "details": "10 μM ethambutol, within 24 hours"}, "[9]": {"experiment": "in vitro", "details": "rat, retinal ganglion cells"}, "[10]": {"tested_on": "retinal ganglion cells", "experiment": "cells", "details": "Rattus norvegicus, 24 h, read-out: half maximal effect of ethambutol toxicity to retinal ganglion cells, 24 hours incubation; viability by fluorescein diacetate"}, "[11]": {"details": "cited from earlier work"}, "[12]": {"tested_on": "NMDA-evoked [Ca2+]i responses", "experiment": "Digital calcium imaging of NMDA-evoked [Ca2+]i responses", "format": "cell-based", "details": "6 μM memantine, 200 μM NMDA", "description": "It has now been discovered that memantine inhibits NMDA-evoked [Ca^2+ ]i responses. […] In fact, [Ca^2+ ]i rose only to levels associated with a low degree of NMDA receptor stimulation in the presence of memantine.\nas §1"}, "[13]": {"target": "NMDA receptor", "details": "at the resting potential; cited from earlier work"}}, "note": "Entries after “also recorded” stand apart in the source; their conditions may differ. Where two headings read alike, the source gives them in different places."}
{"compound": "O=c1[nH]cc(F)c(=O)[nH]1", "note": "[5-FU, 5-fluorouracil]", "values": [{"measurement": "toxicity to retinal ganglion cells", "setting": "[1]", "value": "toxic to retinal ganglion cells"}]}
{"compound": "NC(CCCP(=O)(O)O)C(=O)O", "note": "(stereo not drawn) [APV, 2-amino-5-phosphonovalerate]", "values": [{"measurement": "retinal ganglion cell viability, drug alone", "setting": "[2]; 100 μM drug", "value": "did not affect cell viability"}]}
{"compound": "N#Cc1cc2nc(O)c(O)nc2cc1[N+](=O)[O-]", "note": "[CNQX, 6-cyano-7-nitroquinoxaline-2,3-dione]", "values": [{"measurement": "protection of retinal ganglion cells from ethambutol-mediated toxicity", "setting": "[2]; 100 μM drug with 10 μM ethambutol", "value": "ineffective at preventing ethambutol-mediated cell death"}, {"measurement": "retinal ganglion cell viability, drug alone", "setting": "[2]; 100 μM drug", "value": "did not affect cell viability"}]}
{"compound": "CC(=O)N(O)CCCCCNC(=O)CCC(=O)N(O)CCCCCNC(=O)CCC(=O)N(O)CCCCCN", "note": "[Defororixamine, deferoxamine]", "values": [{"measurement": "toxicity to retinal ganglion cells", "setting": "[1]", "value": "toxic to retinal ganglion cells"}]}
{"compound": "C[C@]12N[C@H](Cc3ccccc31)c1ccccc12", "note": "[MK-801, dizocilpine]", "values": [{"measurement": "effect on the cytotoxic effect of 5-FU, Defororixamine and Tamoxifen on retinal ganglion cells", "setting": "[1]; drug + MK801, 24 hours", "value": "prevented"}, {"measurement": "effect on the concentration of ethambutol necessary to kill mycobacterial strains", "setting": "[3]; 12 μM agent", "value": "had no effect"}, {"measurement": "protection of retinal ganglion cells from ethambutol-mediated toxicity", "setting": "[2]; 12 μM drug with 10 μM ethambutol", "value": "do protect retinal ganglion cells from ethambutol induced injury; also recorded: protect retinal ganglion cells from ethambutol-mediated toxicity"}, {"measurement": "retinal ganglion cell viability, drug alone", "setting": "[2]; 12 μM drug", "value": "did not affect cell viability"}]}
{"compound": "CC/C(=C(\\c1ccccc1)c1ccc(OCCN(C)C)cc1)c1ccccc1", "note": "[Tamoxifen]", "values": [{"measurement": "toxicity to retinal ganglion cells", "setting": "[1]; drug alone, 24 hours", "value": "toxic to retinal ganglion cells"}]}
{"compound": "CC[C@@H](CO)NCCN[C@@H](CC)CO", "note": "[ethambutol]", "values": [{"measurement": "ethambutol toxicity in other cell types", "setting": "[4]", "value": "No ethambutol toxicity"}, {"measurement": "loss of cells in the retinal ganglion cell layer versus control", "setting": "[5]", "value": 18, "unit": "%"}, {"measurement": "other ocular pathology", "setting": "[5]", "value": "no other ocular pathology was detected"}, {"measurement": "effect on the level of endogenous glutamate", "setting": "[6]", "value": "not affected"}, {"measurement": "change in intracellular calcium, ethambutol alone", "setting": "[7]; 1 nM to 1 mM puffed for up to five minutes, 25 of 25 cells", "value": "No change"}, {"measurement": "effect on intracellular calcium, ethambutol alone", "setting": "[7]", "value": "had no effect on intracellular calcium"}, {"measurement": "greater rise in intracellular calcium with ethambutol + NMDA than with NMDA alone", "setting": "[7]", "value": "≥ 20", "unit": "%"}, {"measurement": "greater rise in intracellular calcium with ethambutol + NMDA than with NMDA alone", "setting": "[7]; listed as Ethambutol", "value": 20, "unit": "%"}, {"measurement": "effect on intracellular calcium, ethambutol alone", "setting": "[7]; listed as Ethambutol", "value": "had no effect"}, {"measurement": "retinal ganglion cells that died compared to sibling control cultures", "setting": "[8]", "value": "Approximately half"}, {"measurement": "cytotoxicity at 24 h, 10 µM", "setting": "[9]", "value": "≥ 50", "unit": "%"}, {"measurement": "EC50", "setting": "[10]", "value": 10, "unit": "µM"}, {"measurement": "patients developing optic neuropathy", "setting": "[11]; patients taking ethambutol", "value": "up to 15%"}, {"measurement": "patients with permanent visual loss", "setting": "[11]; patients taking ethambutol", "value": "up to 3%"}, {"measurement": "concentration", "setting": "[11]; read-out: concentration in the cerebrospinal fluid, patients taking the drug orally", "value": 10, "unit": "µM"}]}
{"compound": "CC12CC3CC(C)(C1)CC(N)(C3)C2.Cl", "note": "[memantine, 1-amino-3,5-dimethyladamantane hydrochloride]", "values": [{"measurement": "effect on excessive influx of calcium elicited by NMDA", "setting": "[12]", "value": "largely prevent"}, {"measurement": "effect on the concentration of ethambutol necessary to kill mycobacterial strains", "setting": "[3]; 12 μM agent", "value": "had no effect"}, {"measurement": "protection of retinal ganglion cells from ethambutol-mediated toxicity", "setting": "[2]; 12 μM drug with 10 μM ethambutol, hydrochloride", "value": "do protect retinal ganglion cells from ethambutol induced injury; also recorded: protect retinal ganglion cells from ethambutol-mediated toxicity"}, {"measurement": "retinal ganglion cell viability, drug alone", "setting": "[2]; 12 μM drug", "value": "did not affect cell viability"}, {"measurement": "Ki", "setting": "[13]", "value": "1 to 2", "unit": "µM"}]}
{"compound": "COCCOC(=O)C1=C(C)NC(C)=C(C(=O)OC(C)C)C1c1cccc([N+](=O)[O-])c1", "note": "(stereo not drawn) [nimodipine]", "values": [{"measurement": "effect on the concentration of ethambutol necessary to kill mycobacterial strains", "setting": "[3]; 100 nM agent", "value": "had no effect"}, {"measurement": "protection of retinal ganglion cells from ethambutol-mediated toxicity", "setting": "[2]; 100 nM drug with 10 μM ethambutol", "value": "do protect retinal ganglion cells from ethambutol induced injury; also recorded: protect retinal ganglion cells from ethambutol-mediated toxicity"}, {"measurement": "retinal ganglion cell viability, drug alone", "setting": "[2]; 100 nM drug", "value": "did not affect cell viability"}]}
